Values after ≈ are worked out from the molar mass of the structure shown.
What was measured:
HCT-8 = assay: Cytotoxicity against human HCT8 cells after 72 hrs by MTT assay; assay type: functional, cell-based; conditions: HCT-8, 72 h
BGC-823 = assay: Cytotoxicity against human BGC823 cells after 72 hrs by MTT assay; assay type: functional, cell-based; conditions: BGC-823, 72 h
[1] = Selectivity ratio of IC50 for human embryo lung fibroblast to IC50 for human KB cells; assay type: ADME, cell-based; conditions: human embryo lung fibroblasts and KB cells
KB = assay: Cytotoxicity against human KB cells after 72 hrs by MTT assay; assay type: functional, cell-based
[2] = Cytotoxicity against human embryo lung fibroblast after 72 hrs by MTT assay; assay type: cell-based
A549 = assay: Cytotoxicity against human A549 cells after 72 hrs by MTT assay; assay type: functional, cell-based; conditions: A549, 72 h

| SMILES | IC50 (HCT-8) | IC50 (BGC-823) | selectivity ratio [1] | IC50 (KB) | IC50 [2] | IC50 (A549) |
| --- | --- | --- | --- | --- | --- | --- |
| CCCCOC(=O)[C@H]1O[C@@H](O[C@H]2CC[C@@]3(C)C(CC[C@]4(C)[C@@H]3CC=C3[C@@H]5CC(C)(C)[C@@H](OC(=O)/C=C(\C)CCC=C(C)C)[C@H](OC(=O)C(C)CC)[C@]5(CO)[C@H](O)[C@H](O)[C@]34C)C2(C)C)[C@H](O[C@@H]2O[C@H](CO)[C@@H](O)[C@H](O)[C@H]2O)[C@@H](O)[C@@H]1O[C@@H]1O[C@@H](CO)[C@H](O)[C@H]1O (some centres not stated) | 2.86 µg/mL (≈ 2.26 µM) | 7.29 µg/mL (≈ 5.75 µM) |  |  |  |  |
| COC(=O)[C@H]1O[C@@H](O[C@H]2CC[C@@]3(C)C(CC[C@]4(C)[C@@H]3CC=C3[C@@H]5CC(C)(C)[C@@H](O)[C@H](O)[C@]5(CO)[C@H](O)[C@H](O)[C@]34C)C2(C)C)[C@H](O[C@@H]2O[C@H](CO)[C@@H](O)[C@H](O)[C@H]2O)[C@@H](O)[C@@H]1O[C@@H]1O[C@@H](CO)[C@H](O)[C@H]1O (some centres not stated) | 6.8 µg/mL (≈ 6.86 µM) |  | > 33 | 0.3 µg/mL (≈ 0.303 µM) | > 10 µg/mL | 0.66 µg/mL (≈ 0.666 µM) |
| CCCCOC(=O)[C@H]1O[C@@H](O[C@H]2CC[C@@]3(C)C(CC[C@]4(C)[C@@H]3CC=C3[C@@H]5CC(C)(C)C[C@H](OC(=O)/C=C(\C)CCC=C(C)C)[C@]5(CO)[C@H](O)[C@H](O)[C@]34C)C2(C)C)[C@H](O[C@@H]2O[C@H](CO)[C@@H](O)[C@H](O)[C@H]2O)[C@@H](O)[C@@H]1O[C@@H]1O[C@@H](CO)[C@H](O)[C@H]1O (some centres not stated) | 4.04 µg/mL (≈ 3.46 µM) |  |  |  |  |  |
| CCC(C)C(=O)O[C@H]1[C@H](OC(=O)/C=C(\C)CCC=C(C)C)C(C)(C)C[C@H]2C3=CC[C@@H]4[C@@]5(C)CC[C@H](O[C@@H]6O[C@H](C(=O)OC)[C@@H](O[C@@H]7O[C@@H](CO)[C@H](O)[C@H]7O)[C@H](O)[C@H]6O[C@@H]6O[C@H](CO)[C@@H](O)[C@H](O)[C@H]6O)C(C)(C)C5CC[C@@]4(C)[C@]3(C)[C@@H](O)[C@@H](O)[C@]21CO (some centres not stated) [SYMPLOCOSOSIDE A] | 4.31 µg/mL (≈ 3.52 µM) |  |  | 1.72 µg/mL (≈ 1.4 µM) | 4.62 µg/mL (≈ 3.77 µM) | 0.67 µg/mL (≈ 0.547 µM) |

Source: ChEMBL document CHEMBL1148962, “Cytotoxic triterpenoid saponins from Symplocos chinensis” (J Nat Prod, 2004)
